≈ marks a conversion by molar mass, not a printed value. Read-outs that look alike come from different tables or passages of the source.
Legend:
[1] = tested on: N. gonorrhoeae ATCC49226/MMX 683; assay: Agar dilution MIC assay (Example 1); type: cell-based, Neisseria gonorrhoeae
Experimental: Neisseria gonococcus (N. gonorrhoeae) were assayed using a reference agar dilution method, see reference (2). Drug dilutions and drug-supplemented agar plates were prepared manually. Neisseria gonococcus was grown on Chocolate agar in a CO2 incubator overnight at 35° C. prior to assay. […] The MIC was read per CLSI guidelines, see reference (3).

rabbits = conditions: p.o.; cited from earlier work
cats = conditions: p.o.; cited from earlier work
rats = conditions: cited from earlier work
[2] = via the urinary tract or by enzymatic metabolism in the liver; cited from earlier work
[3] = tested on: Neisseria gonorrhoeae CDC panel consisting of 48 isolates; assay: Agar dilution MIC, CDC panel of 48 isolates (Example 2); type: cell-based; conditions: for MIC: Neisseria gonorrhoeae, read-out: Minimal inhibitory concentration
Experimental: Neisseria gonorrhoeae (Neisseria gonocossus) were tested for antimicrobial susceptibility using agar dilution as described by the Clinical and Laboratory Standards Institute (CLSI), see reference (4).
The concentrations tested for each compound encompass the reported interpretive breakpoints and consist of 8 or more doubling dilutions, ensuring that there is one dilution below the lowest value of QC.
GC agar base +1% defined growth supplement.
Initial screening strains: Neisseria gonorrhoeae CDC panel consisting of 48 isolates. The strains were provided by Clinical and Environmental Microbiology Branch, Division of Healthcare Quality Promotion, CDC (Atlanta, US).
Dilution scheme for reference method: Prepare intermediate 100× antimicrobial agent solutions by making successive serial twofold dilutions. Then, add one part of the 100× antimicrobial solution to […] of molten agar. Plates containing no antimicrobial agent solutions are made for use as growth controls. It is important that no longer than one hour elapses between the time that the stock solution is thawed, the dilutions are prepared and added to the base medium and the plates are poured, see reference (5).
• Add appropriate dilutions of antimicrobial solution to molten test agars that have been allowed to equilibrate in a water bath to 50° C. • Mix the agar and antimicrobial solution thoroughly and pour (20 mL) into Petri dishes on a level surface. Pour quickly after mixing to prevent cooling and partial solidification in the mixing container. Avoid generating bubbles when mixing. • Allow the agar to solidify at room temperature and store them in sealed plastic bags at 2 to 8° C. for up to five days. Preferably use with 24 hours. • Allow plates stored at 2 to 8° C. to equilibrate to room temperature before use. Make certain that the agar surface is dry before inoculating the plates. If necessary, place the plates in an incubator or laminar flow hood for approximately 30 minutes with their lids ajar to hasten drying of the agar surface.
Inoculum preparation: Prepare a standardized inoculum for the agar dilution method by suspending isolated colonies of Neisseria gonorrhoeae selected from an 18-24 hour-old chocolate agar plate directly in Mueller Hinton Broth (MHB) to achieve the density equivalent to a 0.5 McFarland standard and adjusted to obtain a cell density of ˜1-2×10^8 CFU/mL. For N. gonorrhoeae, the McFarland solutions are made at a reading of ˜0.80 in densitometer (Grant Instruments DEN-1B Densitometer) because these values have been evaluated and correspond to the desired CFU/mL count.
Dilution of inoculum suspension: Cultures adjusted to the 0.5 McFarland standard contain approximately 1 to 2×10^8 CFU/mL with most species, and the final inoculum required is 10^4 CFU per spot. When using replicators with 3-mm pins that deliver ˜2.5 μL, dilute the 0.5 McFarland suspension 1:10 in sterile MHB to obtain a concentration of 10^7 CFU/mL. The final inoculum on the agar will be approximately 10^4 CFU per spot. Use the adjusted suspensions for final inoculation within 60 minutes of preparation, see reference (5).
The following procedure was followed: • Arrange the tubes containing the adjusted and diluted bacterial suspensions (10^7 CFU/mL) in order in a rack. Place an aliquot of each well-mixed suspension into the corresponding well in the replicator inoculum block (if being used). • Mark the agar plates for orientation of the inoculum spots. • Apply an aliquot of each inoculum (2.5 μL) to the agar surface, either with an inocula-replicating device or pipette, to obtain a final concentration of ˜10^4 CFU/spot. • Inoculate a growth-control plate (no antimicrobial agent) first and then, starting with the lowest concentration, inoculate the plates containing the different antimicrobial concentrations. […]

[4] = cited from earlier work
mice = conditions: p.o.; cited from earlier work

O=C(Nc1ccc([N+](=O)[O-])cc1Cl)c1cc(Cl)ccc1O [Niclosamide, 2′,5-dichloro-4′-nitrosalicylanilide]
MIC ([1]; ATCC49226, Neisseria gonorrhoeae MMX 683/ATCC 49226, QC, read-out: Minimal Inhibitory Concentration): 0.12 µg/mL (≈ 0.367 µM)
Minimal Inhibitory Concentration ([1]; Neisseria gonorrhoeae MMX 683/ATCC 49226, QC): 0.12 µg/mL
in vitro activity (in words) ([1]; against N. gonococcus (N. gonorrhoeae), Example 1 conclusion): good in vitro activity
LD50 (rabbits): 5000 mg/kg
LD50 (cats): > 1000 mg/kg
LD50 (rats; dermal): 2000 mg/kg
LD50 (rats; p.o.): 5000 mg/kg
clearance from the bloodstream [2]: quickly cleared
MIC ([3]; Neisseria gonorrhoeae strain CDC # 165): ≤ 0.25 µg/mL
MIC ([3]; Neisseria gonorrhoeae strain CDC # 166): ≤ 0.25 µg/mL
MIC ([3]; Neisseria gonorrhoeae strain CDC # 167): ≤ 0.25 µg/mL
MIC ([3]; Neisseria gonorrhoeae strain CDC # 169): ≤ 0.25 µg/mL
MIC ([3]; Neisseria gonorrhoeae strain CDC # 170): ≤ 0.25 µg/mL
MIC ([3]; Neisseria gonorrhoeae strain CDC # 171): ≤ 0.25 µg/mL
MIC ([3]; Neisseria gonorrhoeae strain CDC # 172): ≤ 0.25 µg/mL
MIC ([3]; Neisseria gonorrhoeae strain CDC # 173): ≤ 0.25 µg/mL
MIC ([3]; Neisseria gonorrhoeae strain CDC # 174): ≤ 0.25 µg/mL
MIC ([3]; Neisseria gonorrhoeae strain CDC # 175): ≤ 0.25 µg/mL
MIC ([3]; Neisseria gonorrhoeae strain CDC # 176): ≤ 0.25 µg/mL
MIC ([3]; Neisseria gonorrhoeae strain CDC # 177): ≤ 0.25 µg/mL
MIC ([3]; Neisseria gonorrhoeae strain CDC # 178): ≤ 0.25 µg/mL
MIC ([3]; Neisseria gonorrhoeae strain CDC # 179): ≤ 0.25 µg/mL
MIC ([3]; Neisseria gonorrhoeae strain CDC # 180): ≤ 0.25 µg/mL
MIC ([3]; Neisseria gonorrhoeae strain CDC # 181): ≤ 0.25 µg/mL
MIC ([3]; Neisseria gonorrhoeae strain CDC # 182): ≤ 0.25 µg/mL
MIC ([3]; Neisseria gonorrhoeae strain CDC # 183): ≤ 0.25 µg/mL
MIC ([3]; Neisseria gonorrhoeae strain CDC # 184): ≤ 0.25 µg/mL
MIC ([3]; Neisseria gonorrhoeae strain CDC # 185): ≤ 0.25 µg/mL
MIC ([3]; Neisseria gonorrhoeae strain CDC # 186): ≤ 0.25 µg/mL
MIC ([3]; Neisseria gonorrhoeae strain CDC # 187): ≤ 0.25 µg/mL
MIC ([3]; Neisseria gonorrhoeae strain CDC # 188): ≤ 0.25 µg/mL
MIC ([3]; Neisseria gonorrhoeae strain CDC # 189): ≤ 0.25 µg/mL
MIC ([3]; Neisseria gonorrhoeae strain CDC # 190): ≤ 0.25 µg/mL
MIC ([3]; Neisseria gonorrhoeae strain CDC # 191): ≤ 0.25 µg/mL
MIC ([3]; Neisseria gonorrhoeae strain CDC # 192): ≤ 0.25 µg/mL
MIC ([3]; Neisseria gonorrhoeae strain CDC # 193): ≤ 0.25 µg/mL
MIC ([3]; Neisseria gonorrhoeae strain CDC # 194): ≤ 0.25 µg/mL
MIC ([3]; Neisseria gonorrhoeae strain CDC # 195): ≤ 0.25 µg/mL
MIC ([3]; Neisseria gonorrhoeae strain CDC # 196): ≤ 0.25 µg/mL
MIC ([3]; Neisseria gonorrhoeae strain CDC # 198): ≤ 0.25 µg/mL
MIC ([3]; Neisseria gonorrhoeae strain CDC # 199): ≤ 0.25 µg/mL
MIC ([3]; Neisseria gonorrhoeae strain CDC # 200): ≤ 0.25 µg/mL
MIC ([3]; Neisseria gonorrhoeae strain CDC # 201): ≤ 0.25 µg/mL
MIC ([3]; Neisseria gonorrhoeae strain CDC # 202): ≤ 0.25 µg/mL
MIC ([3]; Neisseria gonorrhoeae strain CDC # 203): ≤ 0.25 µg/mL
MIC ([3]; Neisseria gonorrhoeae strain CDC # 204): ≤ 0.25 µg/mL
MIC ([3]; Neisseria gonorrhoeae strain CDC # 205): ≤ 0.25 µg/mL
MIC ([3]; Neisseria gonorrhoeae strain CDC # 206): ≤ 0.25 µg/mL
MIC ([3]; Neisseria gonorrhoeae strain CDC # 207): ≤ 0.25 µg/mL
MIC ([3]; Neisseria gonorrhoeae strain CDC # 208): ≤ 0.25 µg/mL
MIC ([3]; Neisseria gonorrhoeae strain CDC # 209): ≤ 0.25 µg/mL
MIC ([3]; Neisseria gonorrhoeae strain CDC # 210): ≤ 0.25 µg/mL
MIC ([3]; Neisseria gonorrhoeae strain CDC # 211): ≤ 0.25 µg/mL
MIC ([3]; Neisseria gonorrhoeae strain CDC # 212): ≤ 0.25 µg/mL
MIC ([3]; Neisseria gonorrhoeae strain CDC # 213): ≤ 0.25 µg/mL
MIC ([3]; Neisseria gonorrhoeae strain CDC # 214): ≤ 0.25 µg/mL
in vitro activity (in words) ([3]; against N. gonococcus (N. gonorrhoeae), Example 2 conclusion): Good in vitro activity
solubility in water [4]: poorly soluble
LD50 (mice): > 5000 mg/kg

Reference: patent US20210137948A1, “TREATMENT OF INFECTIONS CAUSED BY NEISSERIA GONOCOCCUS USING A HALOGENATED SALICYLANILIDE” (priority 2018, published 2021)
